This is an account of results in patent US11504349B2, “Composition for preventing or treating TNF-related diseases, containing novel derivative as active ingredient, and method for inhibiting TNF activity by using same” (ILAB, priority 2017, dated 2022).

For orientation: melting point means the temperature of the solid-liquid transition. Usually inhibition stands for the share of the control response that was lost under treatment. A low value points to a weak effect. Broadly, the IC50 is the concentration that gives 50% inhibition. The CC50 is the concentration that lowers cell viability or growth by half. A higher CC50 goes with lower toxicity to the cells.

Series [1] addresses TNF (Homo sapiens, UniProt P01375). Kind of series: TNF-neutralization bioassay: TNF-induced cell death of LM cells (MTT). The following applies: for inhibition at 50 µM: compound 50 μM, TNF 20 ng/ml, actinomycin D, LM cells, 24 hours; for IC50: inhibition of TNF-induced LM cell death. It is filed as cell-based. Here is the method: (§1) First, the addition of recombinant TNF to mouse fibroblast LM cells induces cell death, and thus, by using the same, the TNF-neutralization bioassay was constructed. In other words, LM cells were pretreated with TNF (20 ng/ml) and the compounds synthesized in the above examples at various concentrations (5×10^4 cells/well), and a sensitizer actinomycin D ([…]) was added, and cultured in a CO2 incubator for 24 hours, and then the MTT assay was carried out. At this time, 10 μl of MTT (5 mg/ml stock) was added, reacted for 4 hours, and then dissolved in DMSO to measure the absorbance at 570 nm. First, the TNF cell death inhibition/neutralization action of TNF-target expected compounds at single concentration (50 or 10 μM) was measured. Second, IC50 values were determined by treating with the compounds having an excellent effect at different concentrations. The % inhibition of TNF was calculated using the following formula: % inhibition of TNF=(OD value of a group treated with TNF and compound−OD value of TNF treated group/(OD value of TNF untreated group−OD value of TNF treated group)×100.
(§2) IC50 values were statistically analyzed using Prism 6 (GraphPad) (IC50: 50% inhibitory concentration, CC50: 50% cytotoxic concentration).

A short description of series [2]: Cytotoxicity (CC50) in LM cells, MTT assay. Conditions: mouse, LM cells (mouse fibroblasts); 50% cytotoxic concentration. The class given is cell-based. The protocol: as §1, §2
Background: Tetrazolium assays rely on reduction of a dye to a coloured formazan, in cell work by metabolically active cells.

Sequence of TNF (P01375 77-233 limits assumed): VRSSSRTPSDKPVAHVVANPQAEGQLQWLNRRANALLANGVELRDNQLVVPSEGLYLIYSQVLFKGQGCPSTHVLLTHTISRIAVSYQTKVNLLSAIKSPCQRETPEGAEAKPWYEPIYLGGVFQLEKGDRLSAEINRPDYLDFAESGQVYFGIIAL

`O=C(O)c1c(-c2cccc(F)c2)oc2ccc(Br)cc2c1=O` [Example 46, 2-(3-fluorophenyl)-3-carboxy-6-bromo-(4H)-4-benzopyranone] registered a melting point of 222 to 223 °C. For the same molecule, in series [1], 50 µM produced 100% inhibition and the half-maximal inhibitory concentration (IC50) was 28.9 µM. Further, in series [2], the 50% cytotoxic concentration (CC50) at 24 h is over 50 µM.
On to `O=C(O)c1c(-c2cc(F)cc(F)c2)oc2ccc(Cl)cc2c1=O` [Example 50, 2-(3,5-difluorophenyl)-3-carboxy-6-chloro-(4H)-4-benzopyranone], for which the melting point was in the range of 207 to 209 °C. In series [1], this molecule had an inhibition at 50 µM of 100% and a 50% inhibitory concentration (IC50) of 5.1 µM. In series [2], this molecule had a CC50 at 24 h of 36 µM.
Take `O=C(O)c1c(-c2cccc(F)c2F)oc2cc(Cl)ccc2c1=O` [Example 55, 2-(2,3-difluorophenyl)-3-carboxy-7-chloro-(4H)-4-benzopyranone]: the melting point is at least 220 °C. Besides, in series [1], the inhibition at 50 µM worked out at 100% and the IC50 was 33.6 µM. Moreover, the midpoint of cytotoxicity in series [2], the CC50 at 24 h, lay at 25 µM.
`O=C(O)c1c(-c2cccc(F)c2F)oc2ccc(Cl)cc2c1=O` [Example 56, 2-(2,3-difluorophenyl)-3-carboxy-6-chloro-(4H)-4-benzopyranone] yielded a melting point of at least 120 °C. Further, in series [1], the inhibition at 50 µM turned out to be 100% and half-maximal inhibition (IC50) required 16.4 µM. Further, the midpoint of cytotoxicity in series [2], the CC50 at 24 h, lay at 49 µM.
Taken in the same sequence, the figures for `O=C(O)c1c(-c2cccc(F)c2F)oc2ccc(Br)cc2c1=O` [Example 57, 2-(2,3-difluorophenyl)-3-carboxy-6-bromo-(4H)-4-benzopyranone] were at least 120 °C, 100%, 10.3 µM and 47 µM.
`O=C(O)c1c(-c2cc(F)ccc2F)oc2ccc(Cl)cc2c1=O` [Example 62, 2-(2,5-difluorophenyl)-3-carboxy-6-chloro-(4H)-4-benzopyranone] displayed a melting point of 168 to 170 °C. In series [1], the inhibition at 50 µM is 100% and 3.8 µM corresponded to half-maximal inhibition (IC50). Besides, the CC50 at 24 h in series [2] amounted to 17 µM.
`O=C(O)c1c(-c2cc(F)ccc2F)oc2ccc(Br)cc2c1=O` [Example 63, 2-(2,5-difluorophenyl)-3-carboxy-6-bromo-(4H)-4-benzopyranone] registered a melting point of 152 to 153 °C. Moreover, in series [1], testing at 50 µM gave an inhibition of 100% and the half-maximal inhibitory concentration (IC50) is 36.9 µM. This molecule gave a half-maximal cytotoxic concentration (CC50) at 24 h in series [2] of 36 µM.
The molecule `O=C(O)c1c(-c2ccc(F)c(F)c2)oc2ccc(Cl)cc2c1=O` [Example 67, 2-(3,4-difluorophenyl)-3-carboxy-6-chloro-(4H)-4-benzopyranone] had a melting point of 195 to 198 °C. Also, in series [1], 50 µM produced 100% inhibition and half-maximal inhibition (IC50) required 3.9 µM. For the same molecule, the CC50 at 24 h in series [2] turned out to be 21 µM.
On to `O=C(O)c1c(-c2ccc(Cl)cc2)oc2ccc(Cl)cc2c1=O` [Example 71, 2-(4-chlorophenyl)-3-carboxy-6-chloro-(4H)-4-benzopyranone], for which the melting point lay within 227 to 228 °C. In series [1], this molecule showed an inhibition at 50 µM of 97.9% and a concentration for half-maximal inhibition (IC50) of 3.3 µM. Besides, in series [2], it took 36 µM to reach half-maximal cytotoxicity (CC50 at 24 h).
Taken in the same sequence, the figures for `O=C(O)c1c(-c2ccc(Cl)cc2)oc2ccc(Br)cc2c1=O` [Example 72, 2-(4-chlorophenyl)-3-carboxy-6-bromo-(4H)-4-benzopyranone] were 211 to 213 °C, 100%, 20.8 µM and over 50 µM.
Taken in the same sequence, the figures for `COc1cccc2c(=O)c(C(=O)O)c(-c3ccc(Cl)cc3)oc12` [Example 74, 2-(4-chlorophenyl)-3-carboxy-8-methoxy-(4H)-4-benzopyranone] were 238 to 239 °C, 79%, 52.5 µM and over 50 µM.
